# “And” between values parts separate entries of the source, which are not always exact repeats. Equal entries are not always repeated.
# Target: Replicase polyprotein 1ab (Severe acute respiratory syndrome coronavirus 2, UniProt P0DTD1)
# Test: Functional biochemical assay to identify treatments for viral infectious disease that targets SARS-COV-2 nsp3 macrodomain, whereby the mechanism of action displaces an ADP-Ribose modified peptide from the binding site. Utilizing a time-resolved fluorescence method to measure binding by reading the emitted fluorescence intensity in two wavelengths.
row,Compound,IC50
1,C[C@@H](O)[C@@H](NC(=O)c1csc2c(NC(=O)NC3CC3)ncnc12)c1ccccc1F,> 99.5 µM
2,CC(C)[C@@H](Nc1ncnc2[nH]c(-c3ccc4nnn(C)c4c3)cc12)c1ccc2c(c1)S(=O)(=O)CCC2,0.1 µM and 0.085 µM
3,CC(C)[C@@H](Nc1ncnc2[nH]ccc12)c1cccc(S(C)(=O)=O)c1,96.4 µM
4,CC(C)[C@H](Nc1ncnc(N2CCCC2)n1)c1ccc2c(c1)S(=O)(=O)CCC2,> 99.5 µM
5,NS(=O)(=O)C[C@@H](NC(=O)c1ncnc2[nH]ccc12)c1ccc(Br)cc1,> 99.5 µM
6,c1nc(N2CCC[C@@H](Nc3ccc4c(c3)OCCO4)C2)c2cc[nH]c2n1,> 99.5 µM
7,COc1ccc([C@@H](CC(=O)O)NC(=O)c2c[nH]c3c(NC(=O)NC4CC4)cccc23)cc1,> 99.5 µM
8,O=C(N[C@@H]1CCC[C@@H]1C(=O)O)c1cnn2ccc(C3CCN(C(=O)c4ccc(Cl)c(Cl)c4)CC3)cc12,38 µM and 40.8 µM
9,O=C(N[C@@H](Cc1nn[nH]n1)c1ccc(Br)cc1)c1ncnc2[nH]ccc12,1.92 µM and 2.11 µM
10,Cc1[nH]c2ncnc(NC(=O)c3cccnc3)c2c1C,> 99.5 µM
11,CC(C)[C@@H](Nc1ncnc2[nH]c(C(=O)NCc3ccno3)cc12)c1ccc2c(c1)OCCO2,0.792 µM and 0.829 µM
12,CCNC(=O)c1cc2c(N[C@@H](CC(=O)Nc3cnn(C(C)C)c3)C(C)C)ncnc2[nH]1,27.7 µM and 23.5 µM
13,COc1ccc(C(=O)Nc2ncnc3[nH]c(C)c(C)c23)cn1,> 99.5 µM
14,CC(=O)Nc1ccc(-c2cc3c(N[C@@H](c4ccc5c(c4)S(=O)(=O)CCC5)C(C)C)ncnc3[nH]2)cc1F,0.203 µM and 0.12 µM and 0.206 µM
15,CCCn1nccc1-c1cc2c(N[C@@H](c3ccc4c(c3)OCCO4)C(C)C)ncnc2[nH]1,2.19 µM and 2.45 µM and 2.62 µM
16,CC(C)[C@@H](Nc1ncnc2[nH]c(C(=O)NCc3nncn3C)cc12)c1ccc2c(c1)OCCO2,1.39 µM and 1.23 µM
17,CC(C)[C@@H](Nc1ccc(NC(=O)NC2CC2)cc1)c1ccc2c(c1)OCCO2,> 99.5 µM
18,O=C(c1ccccc1)N1CCC(c2ccn3ncc(C(=O)N4CCc5nc[nH]c5C4)c3c2)CC1,> 99.5 µM
19,CC(=O)Nc1cccc([C@@H](CC(=O)O)NC(=O)c2ncnc3[nH]ccc23)c1,25.8 µM and > 12.4 µM and 20.7 µM
20,COc1ccc([C@@H](CC(=O)O)NC(=O)c2ncnc3[nH]ccc23)cc1,2.07 µM and 2.12 µM and 3.68 µM
21,c1nc(NCc2ccc3c(c2)OCCO3)c2cc[nH]c2n1,80.3 µM and 93.9 µM
22,Cc1[nH]c2ncnc(NC(=O)c3cccnn3)c2c1C,> 99.5 µM
23,Cc1[nH]c2ncnc(NC(=O)Cc3ccc(Cl)nc3)c2c1C,> 99.5 µM
24,O=C(O)C[C@@H](NC(=O)c1cccc2cc[nH]c12)c1ccc(Br)cc1,> 99.5 µM

row,Compound,IC50
1,C[C@@H](c1ccc(F)c(F)c1)N(C)C(=O)c1ncnc2[nH]ccc12,> 99.5 µM
2,CC(C)[C@H]1N(c2ncnc3[nH]ccc23)CC12CCOCC2,> 99.5 µM
3,O=C(O)[C@@H](Nc1ncnc2[nH]ccc12)C1CC(F)(F)C1,> 99.5 µM
4,CNc1nccc(N[C@H](c2ccc3c(c2)S(=O)(=O)CCC3)C(C)C)n1,> 99.5 µM
5,CC(C)(C)[C@@H](Nc1ncnc2[nH]ccc12)c1ccc2c(c1)OCCO2,1.23 µM and 1.06 µM
6,CC(C)[C@@H](NC(=O)c1ccccn1)c1ccc2c(c1)OCCO2,> 99.5 µM
7,CC(=O)c1ccc(-c2cc3c(N[C@@H](c4ccc5c(c4)OCCO5)C(C)C)ncnc3[nH]2)[nH]1,2.97 µM and 3.24 µM
8,O=C(c1c[nH]c(=O)cn1)N1CCC(c2ccn3ncc(C(=O)N4CCCCC4)c3c2)CC1,78.4 µM
9,C[C@H]1C[C@H]1c1nnc(Nc2ccc([C@@H](CC(=O)O)NC(=O)c3ncnc4[nH]ccc34)cc2)o1,7.86 µM and 6.04 µM
10,CC(C)[C@@H](CCN(C)C(=O)c1nn(C)c2ccc(F)cc12)Nc1ncnc2[nH]ccc12,> 99.5 µM
11,COc1cc(Nc2ccc(C(=O)N[C@@H]3c4cccc(O)c4C[C@H]3C(=O)O)cc2)[nH]n1,> 99.5 µM
12,CC(C)[C@@H](Nc1ncnc2[nH]c(-c3cccc(CN4CCCS4(=O)=O)c3)cc12)c1ccc2c(c1)OCCO2,> 99.5 µM
13,Cc1[nH]c2ncnc(NC(=O)c3cccc(Cl)n3)c2c1C,> 99.5 µM
14,CC(C)[C@@H](Nc1ncnc2[nH]ccc12)c1cccs1,14.9 µM
15,CC(C)[C@@H](Nc1ncnc2[nH]c(C3=CCCN(C(=O)OCc4ccccc4)C3)cc12)c1ccc2c(c1)OCCO2,> 99.5 µM
16,O=C(N[C@@H](CCO)c1ccccc1F)c1ncnc2[nH]ccc12,> 99.5 µM
17,O=C(O)[C@@H](Nc1ncnc2[nH]ccc12)C1CC1,72.2 µM and 72 µM
18,COc1nn(C)cc1-c1cc2c(N[C@@H](c3ccc4c(c3)OCCO4)C(C)C)ncnc2[nH]1,1.79 µM and 1.91 µM
19,CC(=O)Nc1ccc(C(=O)Nc2ncnc3[nH]c(C)c(C)c23)cc1Cl,> 99.5 µM
20,NC(=O)C[C@H](NC(=O)c1ncnc2[nH]ccc12)c1ccc(Cl)cc1,> 99.5 µM
21,CC(C)[C@@H](Nc1ncnc2[nH]c(-c3ccc(-n4cccn4)cc3)cc12)c1ccc2c(c1)OCCO2,> 99.5 µM
22,NC(=O)[C@@H](NC(=O)c1ncnc2[nH]ccc12)c1ccc(F)cc1,> 99.5 µM
23,CC(C)[C@@H](Nc1ncnc2[nH]c(C(=O)Nc3cn[nH]c3)cc12)c1ccc2c(c1)OCCO2,2.57 µM
24,Cc1[nH]c2ncnc(NC(=O)c3ccc(C#N)nc3)c2c1C,> 99.5 µM

row,Compound,IC50
1,CC(C)[C@@H](Nc1ncncc1N1CCOCC1)c1ccc2c(c1)S(=O)(=O)CCC2,> 99.5 µM
2,O=C(O)C[C@@H](NC(=O)c1ccnc2ncccc12)c1ccc(Br)cc1,87.9 µM and 92.8 µM
3,CC(C)[C@@H](Nc1ncnc2[nH]c(C(=O)NCC3=NCCCN3)cc12)c1ccc2c(c1)OCCO2,3.68 µM and 7.82 µM
4,Cc1ccc2c(c1)C[C@@H](C(=O)N(C)CC[C@@H](Nc1ncnc3[nH]ccc13)C(C)C)S2,> 99.5 µM
5,Cc1[nH]c2ncnc(NC(=O)c3ccncc3)c2c1C,> 99.5 µM
6,CCNC(=O)c1cc2c(N[C@H](c3ccc4nc(NC(C)=O)sc4c3)C(C)C)ncnc2[nH]1,30.1 µM
7,Cc1nnc(Nc2ccc(C(=O)N[C@@H]3c4cccc(O)c4C[C@@H]3C(=O)O)cc2)o1,7.16 µM and 7.38 µM
8,CCNC(=O)c1cc2c(N[C@@H](c3ccc4c(c3)S(=O)(=O)CCO4)C(C)C)ncnc2[nH]1,0.033 µM and 0.064 µM and 0.052 µM and 0.09 µM and 0.05 µM and 0.073 µM
9,Cc1[nH]c2ncnc(NC(=O)c3ccc(-n4cnnc4)cc3)c2c1C,> 99.5 µM
10,Cc1cc(C)cc(CS(=O)(=O)Nc2cnc3[nH]ccc3c2)c1,> 99.5 µM
11,CC(C)[C@@H](Nc1ncnc2[nH]c(-c3cnc(C4CC4)o3)cc12)c1ccc2c(c1)OCCO2,3.28 µM and 3.76 µM
12,CCn1cc(-c2cc3c(N[C@@H](c4ccc5c(c4)OCCO5)C(C)C)ncnc3[nH]2)cn1,0.626 µM and 0.652 µM
13,CO[C@@H]1CCC[C@H]1NC(=O)c1cc2c(N[C@@H](c3ccc4c(c3)OCCO4)C(C)C)ncnc2[nH]1,1.01 µM and 1.34 µM
14,O=C(O)c1cn(CCNC(=O)c2ncnc3[nH]ccc23)cn1,> 99.5 µM
15,CC(C)[C@H](Nc1ncncc1-n1cncn1)c1ccc2c(c1)S(=O)(=O)CCC2,> 99.5 µM
16,CNCc1cc(-c2cc3c(N[C@H](c4ccc5c(c4)S(=O)(=O)CCO5)C(C)C)ncnc3[nH]2)co1,0.057 µM
17,Cc1nn(CC(N)=O)cc1-c1cc2c(N[C@@H](c3ccc4c(c3)OCCO4)C(C)C)ncnc2[nH]1,0.33 µM and 0.341 µM
18,CC(C)[C@@H](Nc1ncnc2[nH]c(-c3cncnc3)cc12)c1ccc2c(c1)S(=O)(=O)CCC2,0.478 µM and 0.308 µM and 0.538 µM
19,Cc1[nH]c2ncnc(NC(=O)c3ccc(C(F)(F)F)nc3)c2c1C,> 99.5 µM
20,N#CCc1cccc(S(=O)(=O)Nc2cnc3[nH]ccc3c2)c1,> 99.5 µM
21,CC(C)[C@@H](Nc1ncnc2[nH]c(C(=O)N(C)C)cc12)c1ccc2c(c1)OCCO2,21.9 µM and 18.9 µM
22,O=C(N[C@@H](CO)Cc1ccncc1)c1ncnc2[nH]ccc12,> 99.5 µM
23,CC(C)[C@@H](Nc1ncnc2[nH]c(C(=O)Nc3ncco3)cc12)c1ccc2c(c1)OCCO2,7.24 µM and 5.89 µM
24,CS(=O)(=O)NC1CCC(Nc2ccc([C@@H](CC(=O)O)NC(=O)c3ncnc4[nH]ccc34)cc2)CC1 (stereo not given in full),73.7 µM and 86 µM

row,Compound,IC50
1,CC(C)[C@@H](Nc1nc(C(F)F)nc2ccccc12)c1ccc2c(c1)OCCO2,> 99.5 µM
2,CC(C)[C@@H](Nc1ncnc2[nH]cc(C(=O)NC3CC3)c12)c1ccc2c(c1)S(=O)(=O)CCC2,0.26 µM and 0.145 µM and 0.15 µM
3,O=C(Nc1ccc(C(=O)Nc2c(C(=O)O)oc3cc(Br)ccc23)cc1)NC1CC1,> 99.5 µM
4,COc1cccc([C@@H](Nc2ncnc3[nH]ccc23)C(C)C)c1,25.7 µM and 39.9 µM
5,O=C(Nc1ccc(C(=O)Nc2c(C(=O)O)sc3ccncc23)cc1)NC1CC1,> 99.5 µM
6,CNC(=O)c1cc2c(N[C@H](c3ccc4c(c3)NC(=O)CO4)C(C)C)ncnc2[nH]1,5.36 µM and 0.961 µM and 1.34 µM and 1.08 µM
7,COc1cccc(CSC[C@@H](NC(=O)c2ncnc3[nH]ccc23)C(=O)O)c1,> 99.5 µM
8,Cn1ncc2c(C(=O)N[C@@H](CC(=O)O)c3ccc(Br)cc3)ccnc21,70.2 µM and 81.7 µM
9,CNC(=O)c1cc2c(N[C@@H](c3ccc4c(c3)NC(=O)CO4)C(C)C)ncnc2[nH]1,0.164 µM and 0.143 µM and 0.163 µM and 0.154 µM
10,CC(C)[C@@H](Nc1ncnc2[nH]c(C(=O)NCCc3cnco3)cc12)c1ccc2c(c1)OCCO2,0.954 µM and 1.91 µM
11,O=C(O)c1ccsc1C(=O)N1CCC(c2ccn3ncc(C(=O)N4CCCCC4)c3c2)CC1,58.9 µM
12,CC(C)[C@@H](Nc1nc(C2CC2)nc2[nH]ccc12)c1ccc2c(c1)OCCO2,> 99.5 µM
13,CC(C)[C@@H](Nc1ncnc2[nH]c(-c3cncc(OCCN(C)C)c3)cc12)c1ccc2c(c1)OCCO2,0.903 µM and 0.891 µM
14,CC(C)[C@@H](Nc1cc(-c2cc[nH]n2)ncn1)c1ccc2c(c1)OCCO2,> 99.5 µM
15,CC(C)[C@@H](Nc1ncnc2[nH]ccc12)c1ccc2c(n1)S(=O)(=O)CCC2,1.11 µM and 0.784 µM
16,COc1ccc2c(NC(=O)c3ccc(NC(=O)NC4CC4)cc3)c(C(=O)O)sc2c1,> 99.5 µM
17,CS(=O)(=O)NC1CCC(Nc2ccc([C@@H](CC(=O)O)NC(=O)c3c[nH]c4ncncc34)cc2)CC1 (stereo not given in full),> 99.5 µM
18,Cc1[nH]c2ncnc(NC(=O)C3CC(C(F)(F)F)C3)c2c1C (stereo not given),> 99.5 µM
19,COc1ccc(C(=O)N2CCC(c3ccn4ncc(C(=O)N[C@@H]5CCC[C@@H]5C(=O)O)c4c3)CC2)cc1,20.2 µM and 24.6 µM
20,CC(C)[C@@H](Nc1ncnc2[nH]c(-c3cnn(CC4(C#N)CC4)c3)cc12)c1ccc2c(c1)OCCO2,0.421 µM and 0.446 µM
21,CC(C)[C@@H](Nc1ncnc2[nH]c(-c3cc(-c4ccccc4)n[nH]3)cc12)c1ccc2c(c1)OCCO2,> 99.5 µM
22,CC(C)[C@@H](Nc1ncnc2[nH]c(C(=O)NCCc3cn[nH]c3)cc12)c1ccc2c(c1)OCCO2,1.36 µM and 3.4 µM
23,CC(C)[C@@H](Nc1ccnc2[nH]ccc12)c1ccc2c(c1)S(=O)(=O)CCC2,> 99.5 µM

# From ChEMBL document CHEMBL5441456, “ASAP - SARS-CoV-2 nsp3 macrodomain dose response” (2024)
